Source: ChEMBL document CHEMBL6127012, “Discovery of DS-1093a: An oral hypoxia-inducible factor prolyl hydroxylase inhibitor for the treatment of renal anemia” (Bioorg Med Chem Lett, 2024)
pEC50, pIC50: −log10 of the molar value.

tested on: not listed separately; assay: AUC (0 to 24 hrs) in rat at 10 mg/kg, po measured for 14 days; type: ADME, organism-based; details: in vivo, time 14 day

`Cc1nc(CC2CCN(c3ccc(-c4ccc(C[C@H](C)O)cc4)cc3)CC2)nc(C(=O)NCC(=O)O)c1O` gave an AUC at 336 h of 88500 ng·h/mL.

tested on: not listed separately; assay: Cmax in rat at 3 mg/kg, po measured on day 4; type: ADME, organism-based; details: in vivo, time 4 day

In the case of `Cc1nc(CC2CCN(c3ccc(-c4ccc(C[C@H](C)O)cc4)cc3)CC2)nc(C(=O)NCC(=O)O)c1O`, the Cmax was 860 ng/mL.

tested on: not listed separately; assay: AUC (0 to 24 hrs) in rat at 0.54 mg/kg, po measured for 14 days; type: ADME, organism-based; details: in vivo, time 14 day

`Cc1nc(CC2CCN(c3ccc(-c4ccc(C[C@H](C)O)cc4)cc3)CC2)nc(C(=O)NCC(=O)O)c1O` showed an AUC at 336 h of 600 ng·h/mL.

tested on: Cynomolgus monkey; assay: Anti-leukemia activity in cynomolgus monkey assessed as dose required to cause 10 fold increase in plasma EPO level; details: not given

Compared with `Cc1nc(CC2CCN(c3ccc(-c4ccccc4)cc3)CC2)nc(C(=O)NCC(=O)O)c1O`, `Cc1nc(CC2CCN(c3ccc(Cc4ccccc4)cc3)CC2)nc(C(=O)NCC(=O)O)c1O` is 2.2-fold lower in EC10: 1.1 mg/kg for the first, 0.5 mg/kg for the second.

`Cc1nc(CC2CCN(c3ccc(-c4ccc(C[C@@H](C)O)cc4)cc3)CC2)nc(C(=O)NCC(=O)O)c1O` and `Cc1nc(CC2CCN(c3ccc(-c4ccc(C[C@H](C)O)cc4)cc3)CC2)nc(C(=O)NCC(=O)O)c1O` are within 1.5-fold of each other in EC10: 2.4 mg/kg for the first, 3.5 mg/kg for the second.

With `Cc1nc(Cc2ccc(-c3ccccc3)cc2)nc(C(=O)NCC(=O)O)c1O` the EC10 was 2.2 mg/kg.

tested on: not listed separately; assay: Lipophilicity, logD of the compound; type: physicochemical; details: octanol/water

`Cc1nc(CC2CCN(c3ccc(-c4ccc(C[C@H](C)O)cc4)cc3)CC2)nc(C(=O)NCC(=O)O)c1O` showed a logD of 1.2.

tested on: not listed separately; assay: cells; details: Homo sapiens, Hep3B
Description: Induction of EPO production in human Hep3B cells

First: Cc1nc(CC2CCCN(c3ccc(C(C)(C)C)cc3)CC2)nc(C(=O)NCC(=O)O)c1O (stereo not given)
Second: Cc1nc(CC2CCN(c3ccc(C(C)(C)C)cc3)CC2)nc(C(=O)NCC(=O)O)c1O
The pEC50 of the first is 1.10 log units lower: 4.72 for the first, 5.82 for the second. The second is the more potent here.

`Cc1nc(CCCCC2CCN(c3ccc(C(C)(C)C)cc3)CC2)nc(C(=O)NCC(=O)O)c1O` and `Cc1nc(CCCC2CCN(c3ccc(C(C)(C)C)cc3)CC2)nc(C(=O)NCC(=O)O)c1O` are the same in pEC50: 4.96 for the first, 4.96 for the second.

Going from `Cc1nc(Cc2ccc(-c3ccc(C(C)(C)C)cc3)nc2)nc(C(=O)NCC(=O)O)c1O` to `Cc1nc(Cc2cnc(-c3ccc(C(C)(C)C)cc3)nc2)nc(C(=O)NCC(=O)O)c1O`, the pEC50 falls from 6.00 to 5.72 (0.28 log units).

`Cc1nc(CC2CCN(c3ccc(Cl)cc3)CC2)nc(C(=O)NCC(=O)O)c1O` and `Cc1nc(CC2CCN(c3ccc(F)cc3)CC2)nc(C(=O)NCC(=O)O)c1O` are within 0.2 log units of each other in pEC50: 5.16 for the first, 5.00 for the second.

First: Cc1nc(CC2CCN(c3cccc(C(C)(C)C)c3)CC2)nc(C(=O)NCC(=O)O)c1O
Second: Cc1nc(CC2CCN(c3ccc(C(C)(C)C)cc3)C2)nc(C(=O)NCC(=O)O)c1O (stereo not given)
The pEC50 of the first is 0.63 log units higher: 5.20 for the first, 4.57 for the second. The first is the more potent here.

`Cc1nc(CC2CCN(c3ccc(-c4ccc(CC(C)O)cc4)cc3)CC2)nc(C(=O)NCC(=O)O)c1O` (racemic) and `Cc1nc(CC2CCN(c3ccc(-c4ccc(C[C@@H](C)O)cc4)cc3)CC2)nc(C(=O)NCC(=O)O)c1O` are within 0.2 log units of each other in pEC50: 6.26 for the first, 6.36 for the second.

Going from `Cc1nc(Cc2ccc(-c3ccc(C(C)(C)C)cc3)cn2)nc(C(=O)NCC(=O)O)c1O` to `Cc1nc(Cc2cnc(-c3ccc(C(C)(C)C)cc3)s2)nc(C(=O)NCC(=O)O)c1O`, the pEC50 falls from 5.72 to 5.51 (0.21 log units).

`Cc1nc(CC2CCN(c3ccc(Cc4ccc(CC(C)O)cc4)cc3)CC2)nc(C(=O)NCC(=O)O)c1O` (stereo not given) and `Cc1nc(CC2CCN(c3ccc(Cc4ccc(CO)cc4)cc3)CC2)nc(C(=O)NCC(=O)O)c1O` are within 0.2 log units of each other in pEC50: 5.68 for the first, 5.57 for the second.

`CCCCc1ccc(N2CCC(Cc3nc(C)c(O)c(C(=O)NCC(=O)O)n3)CC2)cc1` and `CCCc1ccc(N2CCC(Cc3nc(C)c(O)c(C(=O)NCC(=O)O)n3)CC2)cc1` are the same in pEC50: 5.80 for the first, 5.80 for the second.

Compared with `Cc1nc(CC2CCN(c3ccc(-c4ccc(C(=O)N(C)C)cc4)cc3)CC2)nc(C(=O)NCC(=O)O)c1O`, `Cc1nc(CC2CCN(c3ccc(Cc4ccc(C(=O)N(C)C)cc4)cc3)CC2)nc(C(=O)NCC(=O)O)c1O` is 0.84 log units lower in pEC50: 6.08 for the first, 5.24 for the second. The first is the more potent here.

Compared with `Cc1nc(CC2CCN(c3ccc(Cc4ccc(C(C)(C)CO)cc4)cc3)CC2)nc(C(=O)NCC(=O)O)c1O`, `Cc1nc(CC2CCN(c3ccc(-c4ccc(C(C)(C)CO)cc4)cc3)CC2)nc(C(=O)NCC(=O)O)c1O` is 0.59 log units higher in pEC50: 5.49 for the first, 6.08 for the second. The second is the more potent here.

Compared with `CCc1nc(Cc2ccc(-c3ccccc3)cc2)nc(C(=O)NCC(=O)O)c1O`, `Cc1nc(Cc2ccc(-c3ccccc3)cc2)nc(C(=O)NCC(=O)O)c1O` is 0.28 log units higher in pEC50: 4.80 for the first, 5.08 for the second. The second is the more potent here.

First: Cc1nc(CC2CCN(c3ccc(C(F)(F)F)cc3)CC2)nc(C(=O)NCC(=O)O)c1O
Second: Cc1ccc(N2CCC(Cc3nc(C)c(O)c(C(=O)NCC(=O)O)n3)CC2)cc1
The pEC50 of the first is 0.26 log units higher: 5.26 for the first, 5.00 for the second. The first is the more potent here.

Compared with `Cc1nc(CC2CCN(c3ccc(-c4ccccc4)cc3)CC2)nc(C(=O)NCC(=O)O)c1O`, `Cc1nc(CC2CCN(c3ccc(Cc4ccccc4)cc3)CC2)nc(C(=O)NCC(=O)O)c1O` is 0.38 log units lower in pEC50: 6.38 for the first, 6.00 for the second. The first is the more potent here.

Going from `Cc1nc(Cc2ccc(-c3ccccc3)cc2)nc(C(=O)N[C@@H](C)C(=O)O)c1O` to `Cc1nc(CC2CCN(c3ccc(-c4ccc(C[C@H](C)O)cc4)cc3)CC2)nc(C(=O)NCC(=O)O)c1O`, the pEC50 rises from 4.85 to 6.31 (1.46 log units).

First: Cc1nc(CC2CCN(c3ccc(-c4ccc(CO)cc4)cc3)CC2)nc(C(=O)NCC(=O)O)c1O
Second: Cc1nc(CC2CCN(c3cccc(Cc4ccccc4)c3)CC2)nc(C(=O)NCC(=O)O)c1O
The pEC50 of the first is 0.92 log units higher: 6.33 for the first, 5.41 for the second. The first is the more potent here.

Compared with `CSc1nc(CC2CCN(c3ccc(C(C)(C)C)cc3)CC2)nc(C(=O)NCC(=O)O)c1O`, `CC(C)(C)c1ccc(N2CCC(Cc3nc(C(=O)NCC(=O)O)c(O)c(C(F)F)n3)CC2)cc1` is 0.80 log units lower in pEC50: 5.52 for the first, 4.72 for the second. The first is the more potent here.

`Cc1nc(CCC2CCN(c3ccc(C(C)(C)C)cc3)CC2)nc(C(=O)NCC(=O)O)c1O` showed a pEC50 of 4.89.

tested on: not listed separately; assay: AUC in rat at 3 mg/kg, po measured on day 4; type: ADME, organism-based; details: in vivo, time 4 day

In the case of `Cc1nc(CC2CCN(c3ccc(-c4ccc(C[C@H](C)O)cc4)cc3)CC2)nc(C(=O)NCC(=O)O)c1O`, the AUC at 96 h was 4320 ng·h/mL.

tested on: not listed separately; assay: Toxicity in rat assessed as increase in AST level […] at 100 mg/kg, po measured on day 4 (reference value: 71 IU/L); type: organism-based; details: in vivo, 96 h, time 4 day

Going from `Cc1nc(CC2CCN(c3ccc(-c4ccc(C[C@@H](C)O)cc4)cc3)CC2)nc(C(=O)NCC(=O)O)c1O` to `Cc1nc(CC2CCN(c3ccc(-c4ccc(C[C@H](C)O)cc4)cc3)CC2)nc(C(=O)NCC(=O)O)c1O`, the Activity falls from 103 IU/L to 97 IU/L.

tested on: not listed separately; assay: Toxicity in rat assessed as increase in ALT level […] at 10 mg/kg, po measured on day 4 (reference value: 38 IU/L); type: organism-based; details: in vivo, 96 h, time 4 day

`Cc1nc(CC2CCN(c3ccc(-c4ccc(C[C@@H](C)O)cc4)cc3)CC2)nc(C(=O)NCC(=O)O)c1O` and `Cc1nc(CC2CCN(c3ccc(-c4ccc(C[C@H](C)O)cc4)cc3)CC2)nc(C(=O)NCC(=O)O)c1O` are the same in Activity: 40 IU/L for the first, 40 IU/L for the second.

tested on: not listed separately; assay: Partition coefficient, Kp of compound in rat liver to plasma; type: ADME, cell-free; details: liver and plasma

First: Cc1nc(CC2CCN(c3ccc(-c4ccc(CC(C)O)cc4)cc3)CC2)nc(C(=O)NCC(=O)O)c1O (racemic)
Second: Cc1nc(CC2CCN(c3ccc(Cc4ccccc4)cc3)CC2)nc(C(=O)NCC(=O)O)c1O
The Kp of the first is lower: 1.5 for the first, 9.6 for the second.

tested on: not listed separately; assay: Toxicity in rat assessed as NOAEL at 10 mg/kg, po measured for 14 days; type: organism-based; details: in vivo, 336 h, time 14 day

With `Cc1nc(CC2CCN(c3ccc(-c4ccc(C[C@H](C)O)cc4)cc3)CC2)nc(C(=O)NCC(=O)O)c1O` the Activity was “Non-Toxic”.

tested on: not listed separately; assay: Plasma protein binding in rat assessed as free fraction; type: ADME, cell-free; details: not given

Molecule `Cc1nc(CC2CCN(c3ccc(-c4ccc(C[C@H](C)O)cc4)cc3)CC2)nc(C(=O)NCC(=O)O)c1O` has a Fu of 0.73%.

tested on: not listed separately; assay: AUC (0 to 24 hrs) in rat at 10 mg/kg, po measured on day 4; type: ADME, organism-based; details: in vivo, time 4 day

`Cc1nc(CC2CCN(c3ccc(-c4ccc(C[C@@H](C)O)cc4)cc3)CC2)nc(C(=O)NCC(=O)O)c1O` and `Cc1nc(CC2CCN(c3ccc(-c4ccc(C[C@H](C)O)cc4)cc3)CC2)nc(C(=O)NCC(=O)O)c1O` are within 1.5-fold of each other in AUC at 96 h: 15500 ng·h/mL for the first, 16200 ng·h/mL for the second.

tested on: not listed separately; assay: Half life in rat at 3 mg/kg, po measured on day 4; type: ADME, organism-based; details: in vivo, time 4 day

Work on `Cc1nc(CC2CCN(c3ccc(-c4ccc(C[C@H](C)O)cc4)cc3)CC2)nc(C(=O)NCC(=O)O)c1O` yielded a half-life of 1 h.

tested on: not listed separately; assay: Metabolic stability in rat plasma assessed as parent compound remaining; type: ADME, cell-free; details: not given

`Cc1nc(CC2CCN(c3ccc(-c4ccc(C[C@H](C)O)cc4)cc3)CC2)nc(C(=O)NCC(=O)O)c1O` showed a Stability of 79%.

target: Egl nine homolog 1 (Homo sapiens, UniProt Q9GZT9); assay: not given; details: not given
Sequence (Q9GZT9 whole entry): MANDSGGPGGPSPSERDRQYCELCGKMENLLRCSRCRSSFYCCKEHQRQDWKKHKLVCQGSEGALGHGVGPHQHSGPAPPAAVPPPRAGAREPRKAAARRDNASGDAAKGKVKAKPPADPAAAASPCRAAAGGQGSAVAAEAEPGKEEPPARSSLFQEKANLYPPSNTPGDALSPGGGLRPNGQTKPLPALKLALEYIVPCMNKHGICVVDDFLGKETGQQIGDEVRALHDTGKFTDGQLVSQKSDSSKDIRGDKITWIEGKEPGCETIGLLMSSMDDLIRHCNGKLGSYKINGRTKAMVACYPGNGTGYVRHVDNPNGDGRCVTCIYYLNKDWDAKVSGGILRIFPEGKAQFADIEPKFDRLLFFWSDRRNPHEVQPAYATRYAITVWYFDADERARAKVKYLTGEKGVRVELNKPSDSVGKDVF

Work on `Cc1nc(Cc2ccc(-c3ccccc3)cc2)nc(C(=O)NCC(=O)O)c1C` yielded a pIC50 of less than 4.00.

tested on: Rattus norvegicus; assay: Hematopoietic effect on adenine-induced renal anemia po dosed rat model assessed as increase in hemoglobin level administered for 4 days and measured on day 5,7,9,11 and 14; type: functional, organism-based; details: dose 0.3-3 mg/kg, time 4.0 day

For `Cc1nc(CC2CCN(c3ccc(-c4ccc(C[C@H](C)O)cc4)cc3)CC2)nc(C(=O)NCC(=O)O)c1O`, the Activity was “Dose-Dependent Effect”.

tested on: not listed separately; assay: Toxicity in rat assessed as increase in ALT level […] at 100 mg/kg, po measured on day 4 (reference value: 38 IU/L); type: organism-based; details: in vivo, 96 h, time 4 day

Going from `Cc1nc(CC2CCN(c3ccc(-c4ccc(C[C@@H](C)O)cc4)cc3)CC2)nc(C(=O)NCC(=O)O)c1O` to `Cc1nc(CC2CCN(c3ccc(-c4ccc(C[C@H](C)O)cc4)cc3)CC2)nc(C(=O)NCC(=O)O)c1O`, the Activity falls from 54 IU/L to 52 IU/L.

tested on: not listed separately; assay: AUC (0 to 24 hrs) in rat at 100 mg/kg, po measured on day 4; type: ADME, organism-based; details: in vivo, time 4 day

`Cc1nc(CC2CCN(c3ccc(-c4ccc(C[C@@H](C)O)cc4)cc3)CC2)nc(C(=O)NCC(=O)O)c1O` and `Cc1nc(CC2CCN(c3ccc(-c4ccc(C[C@H](C)O)cc4)cc3)CC2)nc(C(=O)NCC(=O)O)c1O` are within 1.5-fold of each other in AUC at 96 h: 197000 ng·h/mL for the first, 162000 ng·h/mL for the second.

tested on: not listed separately; assay: Toxicity in rat assessed as increase in AST level […] at 10 mg/kg, po measured on day 4 (reference value: 71 IU/L); type: organism-based; details: in vivo, 96 h, time 4 day

First: Cc1nc(CC2CCN(c3ccc(-c4ccc(C[C@@H](C)O)cc4)cc3)CC2)nc(C(=O)NCC(=O)O)c1O
Second: Cc1nc(CC2CCN(c3ccc(-c4ccc(C[C@H](C)O)cc4)cc3)CC2)nc(C(=O)NCC(=O)O)c1O
The Activity of the first is lower: 77 IU/L for the first, 79 IU/L for the second.
